Laboratory results reported in article PMC3561413 (PLoS ONE, 2013).

Assays:
Ba/F3-EPOR VF cells [1] = assay: Cell cycle distribution analysis by flow cytometry (propidium iodide), Ba/F3-EPOR VF; assay type: cell-based; conditions: Mus musculus, after 24 hours, median value, read-out: concentration giving 50% reduction of the cells in the S-phase compared to untreated cells
Experimental: (§1) Ba/F3-EPOR cells, both wt and VF, HEL and SET2 cells were plated at 2×10^4 in 96-well culture tissue plates with increasing concentrations of the drug(s), in triplicate, and the amount of viable cells was assessed at 48 h using the WST-1 assay (Roche, USA) after normalization to wells containing an equivalent volume of vehicle (DMSO) only. For clonogenic assay, 5×10^3 cells were plated in 0.5% agar in medium supplemented with 10% FBS (plus 1 U/mL EPO in case of Ba/F3-EPOR wt cells); variable amount of the drug(s) (or an equivalent volume of vehicle in control plates) was added once at the beginning of culture. Colonies were enumerated by inverted microscopy after 7 day incubation, in duplicate. Quantification of apoptotic cells was accomplished by flow cytometry using the Annexin-V-FLUOS Staining kit (Roche); at least 20,000 events were acquired. For cell cycle distribution analysis by flow cytometry, 1×10^6 cells were treated with ethanol 95%, RNase 10 µg/mL and propidium iodide […].
(§2) Results shown are the Mean±SD of at least three experiments. In panel B, the percentage of Annexin V-positive cells was measured in cultures of Ba/F3-EPOR VF cells exposed to varying amount of the drugs for 48 h; percentage was calculated after subtraction of background apoptosis in cells incubated without drug. Results shown are the Mean±SD of at least three experiments. (TIF) Click here for additional data file.

Ba/F3-EPOR VF cells [2] = assay: Apoptosis (Annexin V flow cytometry), Ba/F3-EPOR VF; assay type: cell-based, mouse; conditions: for IC50: Mus musculus, 48 h, median, read-out: IC50 for apoptosis (Annexin V positive cells)
Experimental: as §1, §2

SET2 cells [3] = assay: Cell cycle distribution analysis by flow cytometry, SET2; assay type: cell-based; conditions: Homo sapiens, SET-2; SET2, median concentration; read-out: concentration giving 50% reduction of cells in the S-phase compared to controls
Experimental: as §1

SET2 cells [4] = assay: Apoptosis (Annexin V flow cytometry), SET2; assay type: cell-based; conditions: Homo sapiens, SET-2; SET2, median
Experimental: as §1

[5] = system: CD34+ cells from PMF patients; assay: CD34+ proliferation assay (WST-1, 48 h), PMF patients; assay type: cell-based; conditions: Homo sapiens, CD34+ cell; PMF patients n = 6, 48 h, cytokine cocktail
Experimental: (§3) To measure the drug-induced inhibition of CD34^+ cell growth, purified cells were plated at 3·10^4 cells/well in IDMEM supplemented with cytokines and variable amounts of the drugs were added. Cell proliferation was evaluated using the WST-1 Assay (Roche, USA) after 48 h and results were normalized to wells containing vehicle only.
(§4) CD34^+ cells from patients with PMF (n = 6) or control subjects (Ctr; n = 5) were plated at 2×10^5/mL in 96-well culture tissue plates with increasing concentrations of the drugs, in triplicate; viable cells were assessed after 48 hrs using the WST-1 assay and normalized to wells containing an equivalent volume of vehicle (DMSO) only.

[6] = system: CD34+ cells from healthy controls; assay: CD34+ proliferation assay (WST-1, 48 h), healthy controls; assay type: cell-based; conditions: Homo sapiens, CD34+ cell; healthy subjects n = 5, 48 h, cytokine cocktail
Experimental: as §3, §4

[7] = system: BFU-E from healthy controls; assay: Colony assay for hematopoietic progenitors, BFU-E, healthy controls; assay type: cell-based; conditions: Homo sapiens, 336 h; Ctrl (n = 10), day 14; read-out: IC50, BFU-E colony formation
Experimental: (§5) Figure 3 mTOR and JAK2 inhibitors preferentially suppress colony formation from hematopoietic progenitors of MPN patients as compared to healthy controls. Mononuclear cells from patients with PV or PMF (n = 10 each) or control subjects (n = 10) were plated at 10^5/mL in cytokine-supplemented methylcellulose medium for the growth of erythroid burst-forming unit (BFU-E) and granulocyte-macrophage colony-forming unit (CFU-GM), and CD34^+ cells (5×10^4/mL) were plated in collagen-based medium for megakaryocyte colony-forming unit (CFU-Mk). […] Colonies were enumerated on day 14 and expressed as a percentage of the colonies grown in control plates containing vehicle only.

BFU-E from PMF patients = assay: Colony assay for hematopoietic progenitors, BFU-E, PMF patients; assay type: cell-based; conditions: Homo sapiens, 336 h; MF (n = 10), day 14; read-out: IC50, BFU-E colony formation
Experimental: as §5

[8] = system: CFU-GM from healthy controls; assay: Colony assay for hematopoietic progenitors, CFU-GM, healthy controls; assay type: cell-based; conditions: Homo sapiens, 336 h, Ctrl (n = 10), day 14, read-out: IC50, CFU-GM colony formation
Experimental: as §5

CFU-GM from PV patients = assay: Colony assay for hematopoietic progenitors, CFU-GM, PV patients; assay type: cell-based; conditions: Homo sapiens, 336 h, PV (n = 10), day 14, read-out: IC50, CFU-GM colony formation
Experimental: as §5

CFU-GM from PMF patients = assay: Colony assay for hematopoietic progenitors, CFU-GM, PMF patients; assay type: cell-based; conditions: Homo sapiens, 336 h, MF (n = 10), day 14, read-out: IC50, CFU-GM colony formation
Experimental: as §5

[9] = system: CFU-Mk from healthy controls; assay: Colony assay for hematopoietic progenitors, CFU-Mk, healthy controls; assay type: cell-based; conditions: Homo sapiens, 336 h; Ctrl (n = 10), day 14; read-out: IC50, CFU-Mk colony formation
Experimental: as §5

CFU-Mk from PV patients = assay: Colony assay for hematopoietic progenitors, CFU-Mk, PV patients; assay type: cell-based; conditions: Homo sapiens, 336 h; PV (n = 10), day 14; read-out: IC50, CFU-Mk colony formation
Experimental: as §5

CFU-Mk from PMF patients = assay: Colony assay for hematopoietic progenitors, CFU-Mk, PMF patients; assay type: cell-based; conditions: Homo sapiens, 336 h; MF (n = 10), day 14; read-out: IC50, CFU-Mk colony formation
Experimental: as §5

[10] = system: EEC from peripheral blood mononuclear cells of PV patients; assay: EEC assay (erythropoietin-independent erythroid colonies), PV patients; conditions: Homo sapiens, PBMC, 240 h, read-out: IC50 of EEC growth
[11] = system: Ba/F3-EPOR VF cells (JAK2V617F); assay: Inhibition of proliferation assay (WST-1, 48 h), Ba/F3-EPOR VF; assay type: cell-based; conditions: Mus musculus
Experimental: as §1

[12] = system: Ba/F3-EPOR wt cells (JAK2 wild-type); assay: Inhibition of proliferation assay (WST-1, 48 h), Ba/F3-EPOR wt; assay type: cell-based; conditions: Mus musculus, 1 U/mL EPO, mean±SD, read-out: IC50 of cell proliferation
Experimental: as §1

[13] = system: Ba/F3-EPOR VF cells (JAK2V617F); assay: Clonogenic assay in agar, Ba/F3-EPOR VF; assay type: cell-based; conditions: Mus musculus, 168 h, semisolid culture, 7 days, single drug, read-out: IC50 of colony formation (clonogenic assay)
Experimental: as §1

[14] = system: Ba/F3-EPOR wt cells (JAK2 wild-type); assay: Clonogenic assay in agar, Ba/F3-EPOR wt; assay type: cell-based; conditions: Mus musculus, 168 h, semisolid culture, 7 days, 1 U/mL EPO, read-out: IC50 of colony formation (clonogenic assay)
Experimental: as §1

[15] = system: HEL cells (JAK2V617F mutated); assay: Inhibition of proliferation assay (WST-1, 48 h), HEL; assay type: cell-based; conditions: Homo sapiens
Experimental: as §1

[16] = system: SET2 cells (JAK2V617F mutated); assay: Inhibition of proliferation assay (WST-1, 48 h), SET2; assay type: cell-based; conditions: Homo sapiens, SET-2, SET2, 48 h
Experimental: as §1

[17] = system: HEL cells (JAK2V617F mutated); assay: Clonogenic assay in agar, HEL; assay type: cell-based; conditions: Homo sapiens, Table 1
Experimental: as §1

[18] = system: SET2 cells (JAK2V617F mutated); assay: Clonogenic assay in agar, SET2; assay type: cell-based; conditions: Homo sapiens, SET-2
Experimental: as §1

BFU-E from PV patients = assay: Colony assay for hematopoietic progenitors, BFU-E, PV patients; assay type: cell-based; conditions: Homo sapiens, 336 h; PV (n = 10), day 14; read-out: IC50, BFU-E colony formation
Experimental: as §5

[19] = BaF3, 48 h, Ba/F3 VF liquid culture maintained with Epo 1 U/mL, read-out: IC50 of cell proliferation in the presence of Epo
[20] = Ba/F3-EPOR VF, 48 h, single drug, cytokine-free medium, mean±SD, read-out: IC50 of cell proliferation
[21] = Table 3, read-out: IC50, proliferation, single drug
[22] = read-out: IC50, proliferation assay
[23] = SET2, Table 1, read-out: IC50, clonogenic assay
[24] = SET2, Table 3, read-out: IC50, clonogenic potential, single drug
[25] = SET2, running text b32, read-out: concentration preventing colony formation (mean value)

| Compound | IC50 (Ba/F3-EPOR VF cells [1]) | IC50 (Ba/F3-EPOR VF cells [2]) | IC50 (SET2 cells [3]) | IC50 (SET2 cells [4]) | IC50 [5] | IC50 [6] | IC50 [7] | IC50 (BFU-E from PMF patients) | IC50 [8] | IC50 (CFU-GM from PV patients) | IC50 (CFU-GM from PMF patients) | IC50 [9] | IC50 (CFU-Mk from PV patients) | IC50 (CFU-Mk from PMF patients) | IC50 [10] | IC50 [11, 19] | IC50 [11, 20] | IC50 [12] | IC50 [13] | IC50 [14] | other results |
| --- | --- | --- | --- | --- | --- | --- | --- | --- | --- | --- | --- | --- | --- | --- | --- | --- | --- | --- | --- | --- | --- |
| N#CC[C@H](C1CCCC1)n1cc(-c2ncnc3[nH]ccc23)cn1 [Ruxolitinib, ruxolitinib] | 1870 nM | 1300 nM | 10000 nM | 500 nM | 840 ± 300 nM | > 5000 nM | 167 ± 70 nM | 46 ± 10 nM | 209 ± 40 nM | 39 ± 6 nM | 43 ± 4 nM | 12 ± 5 nM | 4 ± 2 nM | 4 ± 3 nM | 1.8 ± 1 nM |  |  |  |  |  |  |
| Cc1cc(Nc2nc(N[C@@H](C)c3ncc(F)cn3)ncc2Cl)n[nH]1 [AZD1480] | 1200 nM | 800 nM | 1500 nM | 400 nM | 474 ± 30 nM | 891 ± 100 nM | 226 ± 17 nM | 27 ± 8 nM | 193 ± 13 nM | 46 ± 5 nM | 9 ± 3 nM | 400 ± 12 nM | 44 ± 2 nM | 59 ± 3 nM | 19 ± 2 nM | 707 ± 11 nM | 313 ± 23 nM | 752 ± 30 nM | 19 ± 11 nM | 750 ± 100 nM | IC50 [15]: 860 ± 20 nM; IC50 [16, 21]: 90 ± 5 nM; IC50 [16, 22]: 90 ± 5 nM; IC50 [17]: 460 ± 30 nM; IC50 [18, 23]: 35 ± 10 nM; IC50 [18, 24]: 35 ± 10 nM; IC50 [18, 25]: 35 nM; IC50 (BFU-E from PV patients): 135 ± 19 nM |
| CO[C@H]1C[C@@H]2CC[C@@H](C)[C@@](O)(O2)C(=O)C(=O)N2CCCC[C@H]2C(=O)O[C@H]([C@H](C)C[C@@H]2CC[C@@H](OCCO)[C@H](OC)C2)CC(=O)[C@H](C)/C=C(\C)[C@@H](O)[C@@H](OC)C(=O)[C@H](C)C[C@H](C)/C=C/C=C/C=C/1C [RAD001, Everolimus] | 6500 nM | 5000 nM | 33000 nM | 38000 nM | 271 ± 100 nM | > 5000 nM | 432 ± 22 nM | 42 ± 10 nM | 335 ± 16 nM | 75 ± 4 nM | 46 ± 13 nM | 572 ± 13 nM | 50 ± 5 nM | 44 ± 5 nM | 15 ± 10 nM | 1230 nM | 651 ± 50 nM | 11000 nM | 4 ± 2 nM | 22 ± 10 nM | drug concentration at which an increase of apoptotic cells became appreciable (Ba/F3-EPOR VF cells [2]; followed by a plateau): > 3.3 µM; IC50 [15]: 14000 ± 2800 nM; IC50 [16, 21]: 17000 nM; IC50 [16, 22]: 17000 nM; IC50 [17]: 930 ± 10 nM; IC50 [18, 23]: 44 ± 15 nM; IC50 [18, 24]: 44 ± 15 nM; IC50 [18, 25]: 44 nM; IC50 (BFU-E from PV patients): 91 ± 15 nM |
